IC50 data for twelve compounds are collected here from US5866583A, “Substituted 2,4-diaminopyrimidines” (Hoffmann-La Roche Inc., priority 1996, dated 1999).

Broadly, the IC50 is the concentration that inhibits the measured activity by half. High values mean weaker potency, low ones greater potency.

The target in test [1] is purified DHFR of the reference strain S. aureus ATCC 25923 (Staphylococcus aureus, UniProt P0A017). The test is described as follows: Inhibition of purified DHFR of reference strain S. aureus ATCC 25923. In kind it is biochemical. An excerpt:
(§1) The inhibition of this enzyme was taken as a measurement of the antibacterial activity.

The target of test [2] is purified DHFR of the multiresistant strain S. aureus 157/4696 (Staphylococcus aureus, UniProt P13955). The test is described as follows: Inhibition of purified DHFR of multiresistant strain S. aureus 157/4696. The format is biochemical.
Text: as §1

The target of test [3] is T1, purified DHFR of the opportunistic pathogen P. carinii (Pneumocystis carinii, UniProt P16184).
T1 sequence (P16184 1-206): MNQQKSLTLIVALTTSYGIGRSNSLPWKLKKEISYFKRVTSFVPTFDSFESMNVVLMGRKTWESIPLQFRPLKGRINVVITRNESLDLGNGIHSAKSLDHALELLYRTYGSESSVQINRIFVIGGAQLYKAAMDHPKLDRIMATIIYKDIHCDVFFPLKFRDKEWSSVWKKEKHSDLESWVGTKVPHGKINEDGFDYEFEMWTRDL
The test is described as follows: biochemical. Particulars: IC50 determined by means of a graph.
Text: as §1

Consider `COc1cc(Cc2cnc(N)nc2N)cc(/C=C/C(=O)N2CCc3ccccc3C2c2ccc(C#N)cc2)c1OC` (racemic) [Example 23], for which the results for the IC50 in test [1], in test [2] and in test [3] were 0.5 nM, 0.9 nM and 10000 nM, respectively.
The matching figures for `COc1cc(Cc2cnc(N)nc2N)cc(/C=C/C(=O)N2CCc3ccccc3C2c2ccc(C)nc2)c1OC` (racemic) [Example 32, (E)-(RS)-3-[5-(2,4-Diamino-pyrimidin-5-ylmethyl)-2,3-dimethoxy-phenyl]-1-[1-(6-methyl-pyridin-3-yl)-3,4-dihydro-1H-isoquinolin-2-yl]-propenone]: 1.8 nM, 1.3 nM and 10000 nM.
Consider `COc1cc(Cc2cnc(N)nc2N)cc(/C=C/C(=O)N2CCc3ccccc3C2c2ccccn2)c1OC` (racemic) [Example 3, (E)-(RS)-3-[5-(2,4-Diamino-pyrimidin-5-ylmethyl)-2,3-dimethoxy-phenyl]-1-(1-pyridin-2-yl-3,4-dihydro-1H-isoquinolin-2-yl)-propenone], for which the IC50 was 9 nM in test [1], 9.5 nM in test [2] and 17000 nM in test [3].
On the same counts, the results for `COc1ccc2c(c1)C(c1ccccn1)N(C(=O)/C=C/c1cc(Cc3cnc(N)nc3N)cc(OC)c1OC)CC2` (racemic) [Example 8, (E)-(RS)-3-[5-(2,4-Diamino-pyrimidin-5-ylmethyl)-2,3-dimethoxy-phenyl]-1-(7-methoxy-1-pyridin-2-yl-3,4-dihydro-1H-isoquinolin-2-yl)-propenone] are 5 nM, 9 nM and 5000 nM.
The matching figures for `COc1cc(Cc2cnc(N)nc2N)cc(/C=C/C(=O)N2CCc3ccccc3C2c2ccc(S(C)(=O)=O)cc2)c1OC` (racemic) [Example 40, (E)-(R,S)-3-[5-(2,4-Diamino-pyrimidin-5-ylmethyl)-2,3-dimethoxy-phenyl]-1-[1-(4-methanesulphonyl-phenyl)-3,4-dihydro-1H-isoquinolin-2-yl]-propenone]: 0.7 nM, 1.2 nM and 550 nM.
On the same counts, the results for `COc1cc(Cc2cnc(N)nc2N)cc(/C=C/C(=O)N2CCc3ccccc3C2c2cccs2)c1OC` (racemic) [Example 27, (E)-(RS)-3-[5-(2,4-Diamino-pyrimidin-5-ylmethyl)-2,3-dimethoxy-phenyl]-1-(1-thiophen-2-yl-3,4-dihydro-1H-isoquinolin-2-yl)-propenone] are 1.6 nM, 1.8 nM and 3800 nM.
With `COc1cc(Cc2cnc(N)nc2N)cc(/C=C/C(=O)N2CCc3ccccc3C2c2ccc(Cl)cn2)c1OC` (racemic) [Example 34, (E)-(RS)-1-[1-(5-Chloro-pyridin-2-yl)-3,4-dihydro-1H-isoquinolin-2-yl]-3-[5-(2,4-diamino-pyrimidin-5-ylmethyl)-2,3-dimethoxy-phenyl]-propenone], the IC50 in test [1] is 2.4 nM; in test [2], 1.7 nM; in test [3], 10000 nM.
The matching figures for `COc1cc(Cc2cnc(N)nc2N)cc(/C=C/C(=O)N2CCc3ccccc3C2c2ccc(O)cc2)c1OC` (racemic) [Example 21, (E)-(RS)-3-[5-(2,4-Diamino-pyrimidin-5-ylmethyl)-2,3-dimethoxy-phenyl]-1-[1-(4-hydroxy-phenyl)-3,4-dihydro-1H-isoquinolin-2-yl]-propenone]: 5.5 nM, 13 nM and 380 nM.
The matching figures for `COc1cc(Cc2cnc(N)nc2N)cc(/C=C/C(=O)N2CCc3ccccc3C2c2ccc(Cl)nc2)c1OC` (racemic) [Example 36, (E)-(RS)-1-[1-(6-Chloro-pyridin-3-yl)-3,4-dihydro-1H-isoquinolin-2-yl]-3-[5-(2,4-diamino-pyrimidin-5-ylmethyl)-2,3-dimethoxy-phenyl]-propenone]: 0.8 nM, 3 nM and 6200 nM.
The matching figures for `COc1cc(Cc2cnc(N)nc2N)cc(/C=C/C(=O)N2CCc3ccccc3C2c2ccc(C(N)=O)nc2)c1OC` (racemic) [Example 39, (E)-(R,S)-5-[2-[3-[5-(2,4-Diamino-pyrimidin-5-ylmethyl)-2,3-dimethoxy-phenyl]-acryloyl]-1,2,3,4-tetrahydro-isoquinolin-1-yl]-pyridine-2-carboxamide]: 1.2 nM, 1.8 nM and 30000 nM.
For `COc1cc(Cc2cnc(N)nc2N)cc(/C=C/C(=O)N2CCc3ccccc3[C@@H]2c2ccccn2)c1OC` [Example 1, (E)-(R)-3-[5-(2,4-diamino-pyrimidin-5-ylmethyl)-2,3-dimethoxy-phenyl]-1-(1-pyridin-2-yl-3,4-dihydro-1H-isoquinolin-2-yl)-propenone], the results for the IC50 in test [1], in test [2] and in test [3] were 5 nM, 8 nM and 8000 nM, respectively.
The matching figures for `COc1cc(Cc2cnc(N)nc2N)cc(/C=C/C(=O)N2CCc3ccccc3C2c2ccc(C)cc2)c1OC` (racemic) [Example 16, (E)-(RS)-3-[5-(2,4-Diamino-pyrimidin-5-ylmethyl)-2,3-dimethoxy-phenyl]-1-[1-(4-methyl-phenyl)-3,4-dihydro-1H-isoquinolin-2-yl]-propenone]: 0.2 nM, 4.8 nM and 330 nM.
